Results published in the METLIN SMRT retention time set (Domingo-Almenara et al. 2019).

Assay: gradient 5% acetonitrile 3 min, to 50% in 2 min, to 85% in 15 min, held 3 min, 100 µL/min
Details: column: Zorbax Extend-C18 2.1 x 50 mm; eluents: water / acetonitrile, 0.1% formic acid
How it was run: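 The mobile phases were water and acetonitrile, each with 0.1% formic acid, pumped at 100 μL/min through a Zorbax Extend-C18 column (2.1 × 50 mm, 1.8 μm). Pure standards were injected as mixtures of ~100 molecules and detected by a quadrupole time-of-flight mass spectrometer in positive and negative ionization mode. Retention time came from computationally picked adduct peaks, each inspected by hand.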

Row | Structure (SMILES) | RP-LC retention time [s]
1 | O=C(CC1CCCC1)NCCc1nc2cccnc2n1-c1ccccc1 | 736
2 | Cn1cccc(C(=O)Nc2ccc(N3CCCS3(=O)=O)cc2)c1=O | 644
3 | COc1cccc2cc(C(=O)N3CCN(CCn4cccn4)CC3)oc12 | 571
4 | O=C(COc1ccc(Cl)cc1Cl)NCc1ccsc1 | 920
5 | Cn1ncc2c3ccccc3n(CC(=O)NCCCN3CCCCC3)c2c1=O | 580
6 | COc1cccc2c(SCc3ccccn3)nccc12 | 683
7 | O=C(NC1CCCC1)C1CCCN(S(=O)(=O)c2cc(-c3noc(C4CCCC4)n3)cs2)C1 (stereo not given) | 1120
8 | Cc1cccc(-c2nc3nc(C)cc(N4CCN(c5ccccn5)CC4)n3n2)c1 | 638
9 | O=C(NCC1CCCO1)C1CCN(c2ncccc2-c2nc(-c3cccc(Cl)c3)no2)CC1 (stereo not given) | 990
10 | Cc1ccccc1NS(=O)(=O)c1cc2c(=O)n(C)ncn2c1 | 801
11 | Cn1c(=O)c2cc(C(=O)NCc3ccccc3C(F)(F)F)nn2c2ccccc21 | 940
12 | CC(C)Cn1c(=O)c2nscc2n(CC(=O)NC(C)C)c1=O | 693
13 | CCOc1ccc(NC(=O)C2CCN(S(=O)(=O)c3ccc4c(c3)NC(=O)CO4)CC2)cc1 | 801
14 | CCN1c2ccc(C)cc2C(=O)NC12CCN(C(=O)c1ccc(C(F)(F)F)cc1)CC2 | 788
15 | COCCN1CC2(CCCC2)N(Cc2cc(C(F)(F)F)ccc2Cl)CC1=O | 1060
16 | COc1ccc(C2=NC3(CCN(C(=O)c4ccc(OC)cc4OC)CC3)NC2=O)cc1 | 776
17 | COc1ccc2ncc(S(=O)(=O)c3ccc(C)c(C)c3)c(N3CCN(C)CC3)c2c1 | 654
18 | CC(C)CCNC(=O)C1CCCN(c2ncc(-c3ccc(F)cc3)cn2)C1 (stereo not given) | 1060
19 | C(=C\c1ccc(/C=C/c2ccccc2)nn1)/c1ccccc1 | 1140
20 | CSc1ccc(CNC(=O)Cn2nc(-n3cccc3)c3c(C)cc(C)nc32)cc1 | 1020
21 | CC(C)n1c(N2CCCN(C(=O)c3cccs3)CC2)cc(=O)n(C(C)C)c1=O | 794
22 | CCn1cnc(S(=O)(=O)N2CCC(C(=O)Nc3cc(C)cc(C)c3)CC2)c1 | 797
23 | Cc1oc2c(c1C(=O)Nc1ccc(F)cc1Br)C1=NC(C)(C)CN1C=N2 | 671

Row | Structure (SMILES) | RP-LC retention time [s]
24 | COc1ccc2cc(C(=O)N3CCC(C(C)C(=O)NCCc4c[nH]c5ccccc45)CC3)[nH]c2c1 (stereo not given) | 818
25 | CNC(=O)C1(C)CC(c2ccccc2)=NO1 (stereo not given) | 693
26 | CC1CCN(C(=O)c2cc3c(s2)CCC(C(=O)Nc2ccc4c(c2)OCCO4)C3)CC1 (stereo not given) | 947
27 | Cc1ccccc1-c1noc(Cc2nnc(-c3cc(F)cc(F)c3)o2)n1 | 1090
28 | CCCN1CCN(c2ncc3c(n2)CCN(Cc2ccc(OC(C)C)cc2)C3)CC1 | 581
29 | CCC1Oc2ccc(Cl)cc2N(CC(=O)N2CCN(Cc3noc4ccccc34)CC2)C1=O (stereo not given) | 865
30 | Cc1cc2c(cc1S(=O)(=O)N1CCCC1C(=O)NCCCc1ccccc1)OC(C)C(=O)N2 (stereo not given) | 822
31 | O=C(c1ccco1)N1CCC(OC2CCN(Cc3ccccc3)CC2)CC1 | 595
32 | CCC(C(=O)N1CCc2ccccc21)n1cnc2nc3c(cc2c1=O)CCCC3 (stereo not given) | 899
33 | Cc1ccccc1NC(=O)N1CCCC(C)(C(=O)NCc2ccc(F)cc2)C1 (stereo not given) | 899
34 | CC(C)n1cnc(S(=O)(=O)N2CCC(C(=O)NCCc3ccccc3)CC2)c1 | 745
35 | CCN1C(=O)c2cc(S(=O)(=O)NCc3ccccc3)ccc2Oc2cccnc21 | 986
36 | O=C(Nc1cccnc1)C1CCc2nc(N3CCCCC3)ncc2C1 (stereo not given) | 583
37 | N#Cc1cnc2ccc(Cl)cc2c1N1CCC(C(=O)Nc2cccc(C(F)(F)F)c2)CC1 | 1120
38 | CC(C)(C)NC(=O)N1C[C@@H]2CN(S(=O)(=O)c3cccc(F)c3)C[C@H](C1)O2 | 765
39 | CN(C)c1ccc(N2C=C(C(=O)N3CCCC3)S(=O)(=O)c3ccc(Cl)cc32)cc1 | 928
40 | O=C1NCCCn2cc(S(=O)(=O)Nc3cccc(F)c3)cc21 | 663
41 | O=C(Nc1ccc(N2CCOCC2)cc1)C1CCN(c2cnc3nccnc3c2)CC1 | 610
42 | C=CCNc1c(C(=O)OC)c(=O)[nH]c2ccc(F)cc12 | 679
43 | COC(=O)c1sc2cccc(F)c2c1S(=O)(=O)N1CCN(c2ccccn2)CC1 | 725
44 | O=C(NCc1cccnc1)C1CCN(c2cc(N3CCSCC3)ncn2)CC1 | 553
45 | CCn1nccc1-c1cccc(-c2noc(-c3cccc(NC(=O)c4ccco4)c3)n2)c1 | 1080
46 | O=[N+]([O-])c1cccc(-c2ccc(SCc3ccccn3)nn2)c1 | 637

Row | Structure (SMILES) | RP-LC retention time [s]
47 | CC1CCC(NC(=O)C2CCCN(S(=O)(=O)c3c[nH]c(C(=O)N4CCCC4)c3)C2)CC1 (stereo not given) | 784
48 | c1cc(-c2nc(-c3ccc4c(c3)nnn4CCN3CCCCC3)no2)co1 | 642
49 | O=C(NCCC1=CCCCC1)c1nc(-c2ccnc(N3CCCC3)c2)no1 | 747
50 | CN(C)c1cc(C(=O)NCc2ccncc2)nc2ccnn12 | 581
51 | O=C(NCCN1CCOCC1)c1csc(N2CCN(c3ccc(F)cc3)CC2)n1 | 664
52 | O=C(Cn1cc(-c2nnco2)c2ccccc21)NCc1ccccc1Cl | 831
53 | Cc1ccc(NS(=O)(=O)c2ccc3c(c2)C(=O)N(C)c2ncccc2O3)c(F)c1 | 910
54 | Cc1cccc(CC(=O)Nc2c(C(=O)N3CCN(c4ccccn4)CC3)oc3ccccc23)c1 | 705
55 | CCn1cc(-c2nc(C)c(C(=O)NCc3ccccc3F)s2)c2cccnc21 | 1090
56 | CCCc1ccc(S(=O)(=O)N2CCC(n3cnc4c(C)cccc4c3=O)CC2)cc1 | 640
57 | CCc1nn(C)c(=O)c2cc(S(=O)(=O)NCc3cc(F)cc(F)c3)cn12 | 882
58 | Cn1cc(C2=C(c3cn(CCCSC(=N)N)c4ccccc34)C(=O)NC2=O)c2ccccc21 | 767
59 | O=C(Nc1ccc(-n2cnc(C(=O)N3CCSCC3)c2)nc1)C1CC1 | 657
60 | Nc1cc(C2CCN(S(=O)(=O)c3cccc(C(F)(F)F)c3)CC2)no1 | 794
61 | O=C(Nc1cccnc1)c1ccc(CNS(=O)(=O)c2cccc(C(F)(F)F)c2)cc1 | 635
62 | COc1cc(NS(=O)(=O)c2ccc(-c3c(C)noc3C)cc2)cc(OC)c1OC | 856
63 | COC(=O)c1ccccc1NC(=O)c1cnc2sc(C)cn2c1=O | 759
64 | CCn1cc(CCNC(=O)Nc2ccc(Br)cc2F)c2cccnc21 | 838
65 | CC(C(=O)N1CCC(N2CCCCC2)CC1)C1CCN(S(=O)(=O)c2ccc(Cl)s2)CC1 (stereo not given) | 681
66 | O=C(Cn1cccc1-c1nc(-c2ccc3c(c2)OCO3)no1)NC1CCCCC1 | 1030
67 | O=C(NCC1CCOCC1)Nc1ccccc1 | 656
68 | CCn1cnc(S(=O)(=O)N2CCC(C(=O)NCc3ccccc3Cl)CC2)c1 | 720
69 | O=C(c1cccc(N2C(=O)CCS2(=O)=O)c1)N1CCN(c2ccccn2)CC1 | 726

Row | Structure (SMILES) | RP-LC retention time [s]
70 | CC(C)(C)NC(=O)c1ccc(-n2cc(CNC(=O)C3CCC3)cn2)cc1 | 710
71 | COc1ccc(CC(=O)N2CCC(c3nncn3C(C)C)CC2)cc1 | 622
72 | COc1cccc(CCC(=O)Nc2ccc3c(c2)Sc2ncccc2C(=O)N3C)c1 | 1210
73 | O=C(c1cnccn1)N1CCN(c2cc(-c3ccc(Cl)cc3)[nH]n2)CC1 | 722
74 | c1ccc(SCc2nnc3sc(-c4cccnc4)nn23)cc1 | 742
75 | O=C(Nc1ccccc1Cl)c1c(O)c2cccnc2n(-c2cccc(F)c2)c1=O | 1270
76 | CCN(CC)CCNc1ncnc2c1cnn2-c1ccc(C)cc1 | 642
77 | CCCNC(=O)c1cc2c(s1)N(C)CCC2 | 771
78 | CNC(=O)NCCc1c[nH]c2ncccc12 | 512
79 | O=C(Nc1ccccc1)N1CCc2nc[nH]c2C1 | 560
80 | CCNC(=O)C1CC(=O)N(c2cccc(C)c2)C1 (stereo not given) | 658
81 | Cc1cc2ncn(CC3CCN(C(=O)c4ccsc4)CC3)c2cc1C | 583
82 | O=C(CN1C(=O)CCc2cc(Br)ccc21)NCc1cccnc1 | 614
83 | COCCN1CCn2cc(S(=O)(=O)Nc3cc(C)ccc3C)cc2C1=O | 730
84 | Cc1ccc(Cn2nc3c(S(=O)(=O)N4CCCCCC4)cccn3c2=O)cc1 | 1000
85 | CCc1ccc(NC(=O)CCc2c(C)n(C)c3nc(-c4ccccc4)nn3c2=O)cc1 | 893
86 | O=C(C1CCN(c2ccc(Sc3ccc(Cl)cc3)nn2)CC1)N1CCN(c2ncccn2)CC1 | 801
87 | O=C(NC1CCCCCC1)C1CCN(c2cncnc2N2CCOCC2)CC1 | 635
88 | CNC(=O)N1CCCC(c2cccc(C(=O)NCc3cccc(C(F)(F)F)c3)c2)C1 (stereo not given) | 850
89 | O=C1CC(NC(=O)C2c3ccccc3Oc3ccccc32)CN1 (stereo not given) | 638
90 | CCc1ccc(CNC(=O)C2CCN(c3cncnc3N3CCOCC3)CC2)cc1 | 666
